Results: paper PMC12120022, “Discovery and chemical optimisation of a potent, Bi-cyclic antimicrobial inhibitor of Escherichia coli PBP3” (Communications Biology, 2025)
Where a SMILES comes first, the peptide text is derived from it.

These compounds were tested against T1, EcPBP3 (Escherichia coli, UniProt P0AD68) (assay: Fluorescence polarisation competition assay with BOCILLIN-FL as tracer). Details: competition format; NB, non-binder (100 μM top concentration); read-out: IC50 (nM) by fluorescence polarisation with Bocillin FL as tracer, Geometric mean (Lower 95% CI of geo. Mean; Upper 95% CI of geo. Mean, n=number of values).
T1 construct: For assays, selections and SPR a construct with residues 60–588 which has the N-terminal domain, but not the transmembrane helix, was used; made in house
Assay type: binding
Method: Binding of output peptides to EcPBP3 was evaluated using a fluorescence polarisation (FP) assay.
[…] 10 µL of protein (9.4 nM) was mixed with either 5 µL of peptide or 5 µL of buffer and then the assay was initiated by the addition of 10 µL of tracer (1 nM) (final volume 25 µL), in a black 384 low bind, low volume plate (Corning). The buffer was 10 mM HEPES (Sigma), 2% (v/v) glycerol (Sigma), 300 mM NaCl (Sigma), adjusted to pH 8. The plate was incubated for 1 h at 25 °C and then read in a PHERAstar FS (BMG) using with an “FP 485 520 520” optic module (excitation 485 nm, emission 520 nm). The gain was determined immediately prior to the read on a tracer-only well.
Dotmatics (Dotmatics) workflows performing the above calculations were used to process the data. Values quoted are the geometric means of at least 2 repeats.

T1 sequence (P0AD68 60-588): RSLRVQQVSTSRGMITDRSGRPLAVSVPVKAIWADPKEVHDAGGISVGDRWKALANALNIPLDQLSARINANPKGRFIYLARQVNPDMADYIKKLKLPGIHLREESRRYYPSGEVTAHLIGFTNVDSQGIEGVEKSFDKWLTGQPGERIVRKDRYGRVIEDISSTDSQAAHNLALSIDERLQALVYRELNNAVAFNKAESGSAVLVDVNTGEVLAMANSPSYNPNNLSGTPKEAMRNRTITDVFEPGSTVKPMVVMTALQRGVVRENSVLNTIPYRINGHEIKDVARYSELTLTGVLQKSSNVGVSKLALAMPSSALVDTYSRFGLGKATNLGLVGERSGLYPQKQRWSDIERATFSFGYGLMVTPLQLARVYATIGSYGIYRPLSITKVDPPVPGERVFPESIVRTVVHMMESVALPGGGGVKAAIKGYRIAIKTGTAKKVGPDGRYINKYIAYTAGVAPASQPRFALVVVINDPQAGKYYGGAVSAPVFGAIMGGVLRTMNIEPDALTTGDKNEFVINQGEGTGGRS

Compound	IC50 [nM]
CC(C)C[C@@H]1NC(=O)CNC(=O)[C@@H]2CCCN2C(=O)[C@H](Cc2ccc(O)cc2)NC(=O)[C@H](C)NC(=O)[C@H](Cc2ccc(O)cc2)NC(=O)[C@@H]2CCCN2C(=O)[C@@H](NC(=O)[C@H](C)N)CSCCC(=O)N2CN3CN(C2)C(=O)CCSC[C@H](NC1=O)C(=O)N[C@@H](CC(C)C)C(=O)N[C@@H](CCC(=O)O)C(=O)N[C@@H](Cc1ccccc1)C(=O)N[C@@H](CCCCN)C(=O)N[C@@H](CO)C(=O)N[C@H](C(=O)N[C@@H](C)C(N)=O)CSCCC3=O [Peptide 11] (HELM PEPTIDE1{A.C.P.Y.A.Y.P.G.L.C.L.E.F.K.S.C.A.[am]}|CHEM1{[O=C(CC[*:1])N1CN(C(=O)CC[*:2])CN(C(=O)CC[*:3])C1]}$PEPTIDE1,CHEM1,2:R3-1:R1|PEPTIDE1,CHEM1,10:R3-1:R2|PEPTIDE1,CHEM1,16:R3-1:R3$$$V2.0)	> 100000
CC(C)C[C@@H]1NC(=O)[C@@H]2CSCCC(=O)N3CN(CN(C3)C(=O)CCSC[C@@H](C(=O)N[C@@H](C)C(N)=O)NC(=O)[C@H](Cc3c[nH]c4ccccc34)NC(=O)[C@H](CC(=O)O)NC(=O)[C@H](CC(N)=O)NC(=O)[C@H](CCCCN)NC(=O)[C@H](C)NC1=O)C(=O)CCSC[C@H](NC(=O)[C@H](C)N)C(=O)N[C@@H](C)C(=O)N[C@@H](C)C(=O)N[C@@H](CC(=O)O)C(=O)N[C@@H](CCCNC(=N)N)C(=O)N[C@@H](CC(C)C)C(=O)N[C@@H](Cc1c[nH]c3ccccc13)C(=O)N2 [Peptide 1] (HELM PEPTIDE1{A.C.A.A.D.R.L.W.C.L.A.K.N.D.W.C.A.[am]}|CHEM1{[O=C(CC[*:1])N1CN(C(=O)CC[*:2])CN(C(=O)CC[*:3])C1]}$PEPTIDE1,CHEM1,2:R3-1:R1|PEPTIDE1,CHEM1,9:R3-1:R2|PEPTIDE1,CHEM1,16:R3-1:R3$$$V2.0)	> 100000
CC(C)C[C@@H]1NC(=O)[C@H](C)NC(=O)[C@@H]2CSCCC(=O)N3CN(CN(C3)C(=O)CCSC[C@H](NC(=O)[C@H](C)N)C(=O)N3CCC[C@H]3C(=O)N[C@@H](CCC(=O)O)C(=O)N[C@@H](CCCNC(=N)N)C(=O)N[C@@H](CC(C)C)C(=O)N2)C(=O)CCSC[C@@H](C(=O)N[C@@H](C)C(N)=O)NC(=O)[C@H](CCCNC(=N)N)NC(=O)[C@H](CC(C)C)NC(=O)[C@H]([C@@H](C)O)NC(=O)[C@@H]2CCCN2C(=O)[C@H](CC(C)C)NC(=O)CNC1=O [Peptide 12] (HELM PEPTIDE1{A.C.P.E.R.L.C.A.L.G.L.P.T.L.R.C.A.[am]}|CHEM1{[O=C(CC[*:1])N1CN(C(=O)CC[*:2])CN(C(=O)CC[*:3])C1]}$PEPTIDE1,CHEM1,2:R3-1:R1|PEPTIDE1,CHEM1,7:R3-1:R2|PEPTIDE1,CHEM1,16:R3-1:R3$$$V2.0)	> 100000
CSCC[C@@H]1NC(=O)[C@H](CC(N)=O)NC(=O)[C@H]([C@@H](C)O)NC(=O)[C@H](Cc2ccccc2)NC(=O)[C@H](CCC(=O)O)NC(=O)[C@H](CC(C)C)NC(=O)[C@@H]2CSCCC(=O)N3CN(CN(C3)C(=O)CCSC[C@@H](C(=O)N[C@@H](C)C(N)=O)NC1=O)C(=O)CCSC[C@H](NC(=O)[C@H](C)N)C(=O)N[C@@H](Cc1ccc(O)cc1)C(=O)N[C@@H](CCCCN)C(=O)N[C@@H](Cc1ccc(O)cc1)C(=O)N1CCC[C@H]1C(=O)NCC(=O)N[C@@H](CC(C)C)C(=O)N2 [Peptide 9] (HELM PEPTIDE1{A.C.Y.K.Y.P.G.L.C.L.E.F.T.N.M.C.A.[am]}|CHEM1{[O=C(CC[*:1])N1CN(C(=O)CC[*:2])CN(C(=O)CC[*:3])C1]}$PEPTIDE1,CHEM1,2:R3-1:R1|PEPTIDE1,CHEM1,9:R3-1:R2|PEPTIDE1,CHEM1,16:R3-1:R3$$$V2.0)	> 100000
CC(C)C[C@@H]1NC(=O)[C@H](Cc2ccccc2)NC(=O)[C@H](CCC(=O)O)NC(=O)[C@H]([C@@H](C)O)NC(=O)[C@H](C)NC(=O)[C@@H](NC(=O)[C@H](C)N)CSCCC(=O)N2CN3CN(C2)C(=O)CCSC[C@H](NC(=O)[C@H](CC(C)C)NC(=O)[C@@H]2CCCN2C(=O)[C@H](Cc2ccc(O)cc2)NC1=O)C(=O)N[C@@H](Cc1c[nH]c2ccccc12)C(=O)N[C@@H](Cc1c[nH]c2ccccc12)C(=O)N[C@@H](CC(=O)O)C(=O)N[C@@H](CC(N)=O)C(=O)N[C@H](C(=O)N[C@@H](C)C(N)=O)CSCCC3=O [Peptide 7] (HELM PEPTIDE1{A.C.A.T.E.F.L.Y.P.L.C.W.W.D.N.C.A.[am]}|CHEM1{[O=C(CC[*:1])N1CN(C(=O)CC[*:2])CN(C(=O)CC[*:3])C1]}$PEPTIDE1,CHEM1,2:R3-1:R1|PEPTIDE1,CHEM1,11:R3-1:R2|PEPTIDE1,CHEM1,16:R3-1:R3$$$V2.0)	> 100000
CSCC[C@@H]1NC(=O)[C@H](CC(C)C)NC(=O)[C@@H]2CSCCC(=O)N3CN(CN(C3)C(=O)CCSC[C@@H](C(=O)N[C@@H](C)C(N)=O)NC(=O)[C@H](CC(C)C)NC(=O)[C@H](CCC(=O)O)NC(=O)[C@@H]3CCCN3C(=O)[C@H](Cc3ccccc3)NC1=O)C(=O)CCSC[C@H](NC(=O)[C@H](C)N)C(=O)N[C@@H](CCCNC(=N)N)C(=O)NCC(=O)N[C@@H](CCC(=O)O)C(=O)N[C@@H](CO)C(=O)N[C@@H](CO)C(=O)N[C@@H](Cc1ccccc1)C(=O)N2 [Peptide 4] (HELM PEPTIDE1{A.C.R.G.E.S.S.F.C.L.M.F.P.E.L.C.A.[am]}|CHEM1{[O=C(CC[*:1])N1CN(C(=O)CC[*:2])CN(C(=O)CC[*:3])C1]}$PEPTIDE1,CHEM1,2:R3-1:R1|PEPTIDE1,CHEM1,9:R3-1:R2|PEPTIDE1,CHEM1,16:R3-1:R3$$$V2.0)	> 100000
CC[C@H](C)[C@@H]1NC(=O)[C@H]([C@@H](C)O)NC(=O)[C@H](CC(=O)O)NC(=O)[C@H](C)NC(=O)[C@@H](NC(=O)[C@H](C)N)CSCCC(=O)N2CN3CN(C2)C(=O)CCSC[C@@H](C(=O)N[C@@H](C)C(N)=O)NC(=O)[C@@H]2CCCN2C(=O)[C@H](Cc2ccc(O)cc2)NC(=O)[C@@H]2CCCN2C(=O)[C@H](C(C)C)NC(=O)[C@H](CSCCC3=O)NC(=O)[C@H]([C@@H](C)O)NC(=O)[C@H](CC(C)C)NC(=O)[C@H](CO)NC(=O)[C@H](Cc2ccc(O)cc2)NC1=O [Peptide 6] (HELM PEPTIDE1{A.C.A.D.T.I.Y.S.L.T.C.V.P.Y.P.C.A.[am]}|CHEM1{[O=C(CC[*:1])N1CN(C(=O)CC[*:2])CN(C(=O)CC[*:3])C1]}$PEPTIDE1,CHEM1,2:R3-1:R1|PEPTIDE1,CHEM1,11:R3-1:R2|PEPTIDE1,CHEM1,16:R3-1:R3$$$V2.0)	> 100000
CC(C)C[C@@H]1NC(=O)[C@H](Cc2c[nH]c3ccccc23)NC(=O)[C@H](CCC(=O)O)NC(=O)[C@@H]2CCCN2C(=O)[C@H]([C@@H](C)O)NC(=O)[C@H](CCCCN)NC(=O)[C@H](C)NC(=O)[C@@H](NC(=O)[C@H](C)N)CSCCC(=O)N2CN3CN(C2)C(=O)CCSC[C@@H](C(=O)N[C@@H](C)C(N)=O)NC(=O)[C@H](Cc2ccc(O)cc2)NC(=O)[C@H](C)NC(=O)[C@H](CC(N)=O)NC(=O)[C@H](Cc2ccccc2)NC(=O)CNC(=O)[C@H](CSCCC3=O)NC1=O [Peptide 3] (HELM PEPTIDE1{A.C.A.K.T.P.E.W.L.C.G.F.N.A.Y.C.A.[am]}|CHEM1{[O=C(CC[*:1])N1CN(C(=O)CC[*:2])CN(C(=O)CC[*:3])C1]}$PEPTIDE1,CHEM1,2:R3-1:R1|PEPTIDE1,CHEM1,10:R3-1:R2|PEPTIDE1,CHEM1,16:R3-1:R3$$$V2.0)	> 100000
CC(C)C[C@@H]1NC(=O)[C@H](C(C)C)NC(=O)[C@H](C(C)C)NC(=O)[C@@H]2CCCN2C(=O)[C@H](CCCNC(=N)N)NC(=O)[C@H](C)NC(=O)[C@@H](NC(=O)[C@H](C)N)CSCCC(=O)N2CN3CN(C2)C(=O)CCSC[C@H](NC1=O)C(=O)N[C@@H](Cc1ccc(O)cc1)C(=O)N[C@@H](Cc1c[nH]c2ccccc12)C(=O)N1CCC[C@H]1C(=O)N[C@@H](CCC(=O)O)C(=O)N[C@@H](CC(=O)O)C(=O)N[C@H](C(=O)N[C@@H](C)C(N)=O)CSCCC3=O [Peptide 15] (HELM PEPTIDE1{A.C.A.R.P.V.V.L.C.Y.W.P.E.D.C.A.[am]}|CHEM1{[O=C(CC[*:1])N1CN(C(=O)CC[*:2])CN(C(=O)CC[*:3])C1]}$PEPTIDE1,CHEM1,2:R3-1:R1|PEPTIDE1,CHEM1,9:R3-1:R2|PEPTIDE1,CHEM1,15:R3-1:R3$$$V2.0)	> 100000
CC(C)C[C@@H]1NC(=O)[C@@H]2CCCN2C(=O)[C@H](Cc2ccc(O)cc2)NC(=O)[C@H](C(C)C)NC(=O)[C@H](C(C)C)NC(=O)[C@H](CCC(=O)O)NC(=O)[C@@H](NC(=O)[C@H](C)N)CSCCC(=O)N2CN3CN(C2)C(=O)CCSC[C@H](NC1=O)C(=O)N[C@@H](Cc1ccc(O)cc1)C(=O)N[C@@H](Cc1c[nH]c2ccccc12)C(=O)N[C@@H](CO)C(=O)N[C@@H](CC(=O)O)C(=O)N[C@H](C(=O)N[C@@H](C)C(N)=O)CSCCC3=O [Peptide 8] (HELM PEPTIDE1{A.C.E.V.V.Y.P.L.C.Y.W.S.D.C.A.[am]}|CHEM1{[O=C(CC[*:1])N1CN(C(=O)CC[*:2])CN(C(=O)CC[*:3])C1]}$PEPTIDE1,CHEM1,2:R3-1:R1|PEPTIDE1,CHEM1,9:R3-1:R2|PEPTIDE1,CHEM1,14:R3-1:R3$$$V2.0)	> 100000
